In paper PMC8453901, “GLPG1205, a GPR84 Modulator: Safety, Pharmacokinetics, and Pharmacodynamics in Healthy Subjects” (Clinical Pharmacology in Drug Development, 2021):
“Also recorded” adds a separate entry of the source. Like-named read-outs stand apart in the source and are kept apart here.

Legend:
[1] = Study 2 part 1: effect of aging on pharmacokinetics, 50 mg once daily for 14 days; assay type: in vivo, human; conditions: for Tmax / Cmax / AUC(0-t) / concentration at 24 h / AUC(0-inf) / half-life: male, human, plasma, oral, 50 mg; for AUC(0-t): read-out: AUC0–24h; for concentration at 24 h: read-out: C24h; for half-life: read-out: t1/2,λz (converted)
Description: During study 2, GLPG1205 50 mg or matching placebo was administered as capsules in the morning 30 minutes after the start of a standard breakfast. Subjects were kept in‐house from the evening of day –1 to ≈26 hours after the first dose (day 2), and from the evening of day 13 until day 15. Administration of the study drug was performed daily at the clinical pharmacology unit. Subjects returned for a follow‐up visit at day 35.
In part 1, 24 healthy male subjects were matched into 3 cohorts based on body weight: Cohort A comprised 8 subjects aged 65–74 years, inclusive; cohort B comprised 8 subjects aged ≥75 years (1:1 weight matched with cohort A subjects [± 5 kg]); and cohort C comprised 8 subjects aged 18 to 50 years, inclusive (1:1 weight matched with cohort A subjects [± 5 kg]). All cohorts received GLPG1205 50 mg once daily or matching placebo, in a 3:1 ratio, for 14 days. In the open‐label second part of study 2, 8 subjects (cohort D) aged 65 to 74 years, inclusive, were included to characterize the PK profile after a loading dose of GLPG1205 250 mg on day 1 followed by multiple doses of GLPG1205 50 mg once daily from day 2 to day 14.
In the SAD part of study 1, blood samples (2 mL) for PK assessments were obtained before dosing and at multiple time points on the day of study drug administration (before dosing and 0.5, 1, 2, 4, 6, 8, and 12 hours after dosing) and at 24, 48, and 72 hours after dosing. The predose sample for the next dose level was also used in PK analysis (168 hours after dosing). […] In the MAD part of study 1, blood samples (2 mL) were obtained on days 1, 2, 4, 5, 6, 8, 10, 12, 14, 15, 16, 17, and 18 and at follow‐up (approximately 7 to 10 days after the last dose). These PK blood samples were taken after dosing (1, 2, 4, 6, 8, 12, and 24 hours) on day 1; before dosing on days 4, 6, 8, and 10; and after dosing (1, 2, 4, 6, 8, 12, 24, 72, and 96 hours) on day 14. The following additional PK blood samples were also taken: cohort C, before dosing on day 5; and cohorts D and E, before dosing on day 12. Urine samples were obtained from fractions collected over 6‐ or 12‐hour periods after dosing on days –1, 1, 2, 13, 14, and 15; samples obtained on days –1 and 13 were for cytochrome P450 (CYP) induction analysis only. In study 2, blood samples (2 mL) were obtained on days 1, 2, 5, 7, 10, 14, 15, 17, and 20 and at follow‐up (approximately 21 days after end of study medication administration). Blood samples were taken before dosing and at 1, 2, 4, 6, 8, 12, and 24 hours after drug administration on days 1 and 14 and before dosing on other sampling days.
GLPG1205 plasma concentrations were determined using a validated liquid chromatography with tandem mass spectrometry method. After a protein precipitation with methanol, a chromatographic separation was performed on a Kinetex C18 column (50×3.0 mm, 2.6 μm; Phenomenex, Torrance, California) set at 40°C by using a Nexera high‐performance liquid chromatography (HPLC) system (Shimadzu, Kyoto, Japan) or an Infinity HPLC system (Agilent Technologies, Diegem, Belgium) in isocratic elution mode. A QTRAP6500, QTRAP4000, or API4000 mass spectrometer (AB Sciex, Nieuwerkerk aan den Ijssel, The Netherlands) equipped with a TurboIonSpray probe operated in the multiple reaction monitoring in positive mode was used for quantification. The calibration curves in plasma were linear over the range of 1 to 1000 ng/mL with 1/x^2 as weighting factor. The limit of quantification of the assay in the plasma samples was set at 1 ng/mL.
PK calculations were performed using Phoenix WinNonlin 6.2 (Pharsight Corporation, Palo Alto, California). […] AUC0‐inf was calculated from the area under the plasma concentration‐time curve from time 0 until the time corresponding with the last observed quantifiable concentration + Ct/λz, where Ct was the last observed quantifiable concentration and λz the first‐order terminal rate constant. […]

[2] = tested on: CYP2B6; design: method as in data on file at Galapagos; conditions: in vitro; ref data on file at Galapagos; cited from earlier work
[3] = 50 mg once daily, cohort A 65-74 y, day 14, mean (CV%), N = 4
[4] = 50 mg once daily, cohort A 65-74 y, day 1, mean (CV%)
[5] = 50 mg once daily, cohort A 65-74 y, day 14, mean (CV%)
[6] = 50 mg once daily, cohort B ≥75 y, day 1, mean (CV%)
[7] = 50 mg once daily, cohort B ≥75 y, day 14, mean (CV%)
[8] = 50 mg once daily, cohort C 18-50 y, day 1, mean (CV%)
[9] = 50 mg once daily, cohort C 18-50 y, day 14, mean (CV%)

For `O=c1nc(OC[C@@H]2COCCO2)cc2n1CCc1cc(C#CC3CC3)ccc1-2` [GLPG1205, 9‐cyclopropylethynyl‐2‐((S)‐1‐[1,4]dioxan‐2‐ylmethoxy)‐6,7‐dihydropyrimido[6,1‐a]isoquinolin‐4‐one], the “effect of age on GLPG1205 exposure” value ([1]; 50 mg once daily for 14 days, 3 age groups) was “Age did not affect GLPG1205 exposure; also recorded: age has no effect on GLPG1205 exposure; also recorded: Age had no effect on the PK”, the “Rac (accumulation ratio)” value ([1]; 50 mg once daily, cohort A 65-74 y, AUC0-24h day 14/day 1 (Table 5A)) was 6.16 (0.74) and the “AUC0–inf” value [1, 3] was 338 (26.0) ^N = 4 μg • h/mL. For the same molecule, the “Rac (accumulation ratio)” value ([1]; 50 mg once daily, cohort B ≥75 y, AUC0-24h day 14/day 1) was 5.77 (1.34), the “Rac (accumulation ratio)” value ([1]; 50 mg once daily, cohort C 18-50 y, AUC0-24h day 14/day 1) was 5.02 (1.66) and the Tmax ([1]; 50 mg once daily for 14 days, all 3 age groups) was 2 to 3 h. It also gave a Cmax [1, 4] of 557 ng/mL, an AUC(0-t) [1, 4] of 8920 ng·h/mL and a concentration at 24 h [1, 4] of 334 ng/mL. For the same molecule, the Cmax [1, 5] was 2750 ng/mL, the AUC(0-inf) [1, 3] was 338000 ng·h/mL and the AUC(0-t) [1, 5] was 54200 ng·h/mL. For the same molecule, the concentration at 24 h [1, 5] was 2440 ng/mL, the half-life [1, 5] was 71.9 h and the Cmax [1, 6] was 440 ng/mL. The AUC(0-t) [1, 6] was 6900 ng·h/mL, the concentration at 24 h [1, 6] was 290 ng/mL and the Cmax [1, 7] was 1960 ng/mL. It also gave an AUC(0-inf) ([1]; 50 mg once daily, cohort B ≥75 y, day 14, mean (CV%), N = 4) of 236000 ng·h/mL, an AUC(0-t) [1, 7] of 39300 ng·h/mL and a concentration at 24 h [1, 7] of 1820 ng/mL. It also gave a half-life [1, 7] of 64.5 h, a Tmax ([1]; 50 mg once daily, cohort B ≥75 y, day 14, median (minimum-maximum)) of 3 h and a Cmax [1, 8] of 476 ng/mL. The AUC(0-t) [1, 8] was 7740 ng·h/mL, the concentration at 24 h [1, 8] was 301 ng/mL and the Cmax [1, 9] was 1950 ng/mL. The AUC(0-inf) ([1]; 50 mg once daily, cohort C 18-50 y, day 14, mean (CV%), N = 5) was 194000 ng·h/mL, the AUC(0-t) [1, 9] was 37700 ng·h/mL and the concentration at 24 h [1, 9] was 1590 ng/mL. For the same molecule, the half-life [1, 9] was 56 h and the “inhibition of CYP2B6” value [2] was “weak inhibition”.
